Values of other authors as cited in patent US20020032188A1, “Compositions and methods for treatment of anal fissure” (priority 2000, published 2002).

Conditions: topical ISDN

O=[N+]([O-])O[C@H]1CO[C@H]2[C@@H]1OC[C@H]2O[N+](=O)[O-] [ISDN, isosorbide dinitrate]
treatment of chronic anal fissure, result reported: effective treatment for chronic anal fissure
